Organism: Rattus norvegicus
Assay: Open TG-GATES - Regimen: Single
Assay type: toxicity, organism-based, Sprague-Dawley
Parameters: regimen Single, gender Male, age 6 weeks
Details: in vivo, po, 100 mg/kg, route gavage, dose level Low; for APTT / Bas / Eos / Fbg / Hb / Ht / Lym / MCH / MCHC / MCV / Mono / Neu / PT / Plat / RBC / Ret / WBC: tissue Blood; for KIDNEY_L / KIDNEY_R / KIDNEY_TOTAL: tissue Kidney; for LIVER: tissue Liver; for A/G / ALP / ALT / AST / BUN / CRE / Ca / Cl / DBIL / GLC / IP / K / LDH / Na / PL / RALB / TBIL / TC / TG / TP / gamma-GTP: tissue Plasma

Q: Which results are given for `C[C@H]1O[C@H](O[C@H]2[C@H](O)[C@@H](O)[C@@H](O[C@H]3[C@H](O)[C@@H](O)C(O)O[C@@H]3CO)O[C@@H]2CO)[C@H](O)[C@@H](O)[C@@H]1N[C@H]1C=C(CO)[C@@H](O)[C@H](O)[C@H]1O` (some centres not stated) [ACARBOSE]?
A: TERMINAL_BW (3 h): 197.7 g; APTT (3 h): 16.7 s; Bas (3 h): 0.2%; Eos (3 h): 0.8%; Fbg (3 h): 274.6 mg/dL; Hb (3 h): 13.5 g/dL; Ht (3 h): 41.3%; Lym (3 h): 78.4%; MCH (3 h): 21.1 pg; MCHC (3 h): 32.6%; MCV (3 h): 64.8 fL; Mono (3 h): 2%; Neu (3 h): 17.8%; PT (3 h): 13.6 s; Plat (3 h): 118.3 x10_4/uL; RBC (3 h): 639 x10_4/ul; Ret (3 h): 8.2%; WBC (3 h): 89.6 x10_2/uL; KIDNEY_L (3 h): 0.9 g; KIDNEY_R (3 h): 0.9 g; KIDNEY_TOTAL (3 h): 1.8 g; LIVER (3 h): 8.5 g; A/G (3 h): 0.9; ALP (3 h): 1409.6 IU/L; ALT (3 h): 39.2 IU/L; AST (3 h): 77.6 IU/L; BUN (3 h): 10.4 mg/dL; CRE (3 h): 0.2 mg/dL; Ca (3 h): 10.7 mg/dL; Cl (3 h): 104.6 meq/L; DBIL (3 h): 0.004 mg/dL; GLC (3 h): 172.2 mg/dL; IP (3 h): 9.9 mg/dL; K (3 h): 3.8 meq/L; LDH (3 h): 60 IU/L; Na (3 h): 141.2 meq/L; PL (3 h): 136.4 mg/dL; RALB (3 h): 2.5 g/dL; TBIL (3 h): 0.062 mg/dL; TC (3 h): 75.4 mg/dL; TG (3 h): 39.2 mg/dL; TP (3 h): 5.1 g/dL; gamma-GTP (3 h): 1 IU/L; TERMINAL_BW (6 h): 198.1 g; APTT (6 h): 16 s; Bas (6 h): 0%; Eos (6 h): 1%; Fbg (6 h): 307.2 mg/dL; Hb (6 h): 13.4 g/dL; Ht (6 h): 41.5%; Lym (6 h): 78.2%; MCH (6 h): 21 pg; MCHC (6 h): 32.3%; MCV (6 h): 65.1 fL; Mono (6 h): 2.2%; Neu (6 h): 17.8%; PT (6 h): 13.3 s; Plat (6 h): 117.7 x10_4/uL; RBC (6 h): 636.8 x10_4/ul; Ret (6 h): 8.8%; WBC (6 h): 81.3 x10_2/uL; KIDNEY_L (6 h): 0.9 g; KIDNEY_R (6 h): 0.9 g; KIDNEY_TOTAL (6 h): 1.9 g; LIVER (6 h): 8.3 g; A/G (6 h): 0.9; ALP (6 h): 1322 IU/L; ALT (6 h): 34.6 IU/L; AST (6 h): 67.8 IU/L; BUN (6 h): 8.4 mg/dL; CRE (6 h): 0.2 mg/dL; Ca (6 h): 10.8 mg/dL; Cl (6 h): 104.2 meq/L; DBIL (6 h): 0.002 mg/dL; GLC (6 h): 168.2 mg/dL; IP (6 h): 10.2 mg/dL; K (6 h): 3.8 meq/L; LDH (6 h): 58.4 IU/L; Na (6 h): 141 meq/L; PL (6 h): 133.8 mg/dL; RALB (6 h): 2.5 g/dL; TBIL (6 h): 0.062 mg/dL; TC (6 h): 77.2 mg/dL; TG (6 h): 31 mg/dL; TP (6 h): 5.2 g/dL; gamma-GTP (6 h): 1 IU/L; TERMINAL_BW (9 h): 195.5 g; APTT (9 h): 16.9 s; Bas (9 h): 0%; Eos (9 h): 0.8%; Fbg (9 h): 303.8 mg/dL; Hb (9 h): 13 g/dL; Ht (9 h): 40.5%; Lym (9 h): 77.4%; MCH (9 h): 20.6 pg; MCHC (9 h): 32.2%; MCV (9 h): 63.9 fL; Mono (9 h): 2.6%; Neu (9 h): 18.4%; PT (9 h): 13.4 s; Plat (9 h): 124.4 x10_4/uL; RBC (9 h): 634.4 x10_4/ul; Ret (9 h): 8.3%; WBC (9 h): 71.6 x10_2/uL; KIDNEY_L (9 h): 0.9 g; KIDNEY_R (9 h): 0.9 g; KIDNEY_TOTAL (9 h): 1.8 g; LIVER (9 h): 7.9 g; A/G (9 h): 0.9; ALP (9 h): 1274 IU/L; ALT (9 h): 35.8 IU/L; AST (9 h): 68.4 IU/L; BUN (9 h): 8 mg/dL; CRE (9 h): 0.2 mg/dL; Ca (9 h): 10.6 mg/dL; Cl (9 h): 105 meq/L; DBIL (9 h): 0 mg/dL; GLC (9 h): 178.2 mg/dL; IP (9 h): 10 mg/dL; K (9 h): 3.9 meq/L; LDH (9 h): 64.2 IU/L; Na (9 h): 141.6 meq/L; PL (9 h): 150.4 mg/dL; RALB (9 h): 2.5 g/dL; TBIL (9 h): 0.058 mg/dL; TC (9 h): 85.4 mg/dL; TG (9 h): 61.6 mg/dL; TP (9 h): 5.3 g/dL; gamma-GTP (9 h): 1 IU/L; TERMINAL_BW (24 h): 213.3 g; APTT (24 h): 17.6 s; Bas (24 h): 0%; Eos (24 h): 1%; Fbg (24 h): 286.2 mg/dL; Hb (24 h): 13.4 g/dL; Ht (24 h): 41%; Lym (24 h): 76.4%; MCH (24 h): 20.9 pg; MCHC (24 h): 32.7%; MCV (24 h): 63.9 fL; Mono (24 h): 2.6%; Neu (24 h): 19.2%; PT (24 h): 13 s; Plat (24 h): 114.1 x10_4/uL; RBC (24 h): 641.4 x10_4/ul; Ret (24 h): 7.9%; WBC (24 h): 97.3 x10_2/uL; KIDNEY_L (24 h): 0.9 g; KIDNEY_R (24 h): 0.9 g; KIDNEY_TOTAL (24 h): 1.9 g; LIVER (24 h): 10.2 g; A/G (24 h): 0.9; ALP (24 h): 1382.4 IU/L; ALT (24 h): 44.6 IU/L; AST (24 h): 74 IU/L; BUN (24 h): 14.4 mg/dL; CRE (24 h): 0.2 mg/dL; Ca (24 h): 10.9 mg/dL; Cl (24 h): 105.4 meq/L; DBIL (24 h): 0.008 mg/dL; GLC (24 h): 170.8 mg/dL; IP (24 h): 8.3 mg/dL; K (24 h): 4.1 meq/L; LDH (24 h): 57.8 IU/L; Na (24 h): 142.6 meq/L; PL (24 h): 140.8 mg/dL; RALB (24 h): 2.6 g/dL; TBIL (24 h): 0.056 mg/dL; TC (24 h): 72.6 mg/dL; TG (24 h): 76.2 mg/dL; TP (24 h): 5.5 g/dL; gamma-GTP (24 h): 1 IU/L

From ChEMBL document CHEMBL3885861, “Open TG-GATES”
